According to patent publication US20240336604A1 (THE UNITED STATES OF AMERICA, AS REPRESENTED BY THE …, priority 2021, published 2024):

How the values were obtained:
Type in all cases: cell-based
[1] = system: other dopamine receptor subtypes; test: DiscoverX β-arrestin assay, other dopamine receptors; details: FIG. 1A
From the text: For a secondary-screen and selectivity assays, DAR PathHunter®-arrestin GPCR cell lines from DiscoverX (Fremont, CA) were used. In the D2 DAR PathHunter®-arrestin GPCR cell line, the D2 DAR is overexpressed and fused with a small 42-amino acid fragment of β-galactosidase called ProLink™ on a CHO cellular background expressing a fusion protein of β-arrestin and a larger N-terminal deletion mutant of β-galactosidase (“enzyme acceptor”). When the D2 DAR is activated by dopamine, it stimulates binding of β-arrestin to the ProLink-tagged DAR and the two complementary parts of β-galactosidase form a functional enzyme. When substrate (PathHunter™ Detection reagent) is added, β-galactosidase hydrolyzes it and generates a chemiluminescent signal.

[2] = biological target: T1, D3 DAR (Homo sapiens, UniProt P35462); test: Go BRET activation assay, D3 DAR; details: EC80 DA (30 nM)
Protocol: Briefly, HEK293T cells transiently expressing either the D2 DAR or D3 DAR and GαoA-Rluc8, untagged-β1, and mVenus-γ2 were harvested with EBSS, plated in 96-well white plates at 20,000 cells/well in DPBS and incubated at RT for 45 min. […] BRET signal was determined by quantifying and calculating the ratio of the light emitted by mVenus (525 nm) over that emitted by RLuc8 (485 nm) using a PHERAstar FSX Microplate Reader (BMG Labtech).

[3] = biological target: T1, D3 DAR; test: Functional curve-shift assays using the DiscoverX β-arrestin recruitment assay; set-up: host or cells: CHO
From the text: To further assess the mechanism of action of Cmp. […] 1 (FIGS. 4B and 4D). […] Average curves are shown (mean±SEM from at least 3 experiments each performed in triplicate). […] In contrast, increasing concentrations of Cmp.
1. FIG. 6A-C panels show concentration-response curves of dopamine in the absence or presence of increasing concentrations of compound. Cmp. […] 18 (FIG. 6A), Cmp. 5 (FIG. 6B), and Cmp. 17 (FIG. 6C), respectively. Average curves are shown (mean±SEM from at least 3 experiments, each performed in triplicate).
A D3 DAR β-arrestin cell line from DiscoverX (Fremont, CA) was used as described in the protocol below (Table 2). A CHO cell line engineered to overexpress the D3 DAR fused with a small 42-amino acid fragment of β-galactosidase called ProLink™ and a fusion protein consisting of β-arrestin and a larger N-terminal deletion mutant of β-galactosidase was used (DiscoverX catalogue number 93-0579C2). When the D3 DAR is activated by dopamine, it stimulates binding of β-arrestin to ProLink-tagged D3 DARs, and the two complementary parts of β-galactosidase form a functional enzyme. When substrate (PathHunter® Detection reagent, DiscoverX 93-0001) is added, β-galactosidase hydrolyzes it and generates a chemiluminescent signal.

[4] = biological target: T2, D2 DAR (Homo sapiens, UniProt P14416); test: BRET β-arrestin recruitment assay, D2 DAR; details: FIG. 3A right
Protocol: BRET β-arrestin recruitment assay: As an orthogonal test using an unrelated assay of D2- or D3 DAR-mediated β-arrestin recruitment, an arrestin BRET assay was conducted. HEK293T cells transiently expressing D2-Rluc8, Arrestin3-mvenus and GRK2, or D3-Rluc8, Arrestin3-mvenus, and GRK3 were harvested with EBSS, plated in 96-well plates in Dulbecco's phosphate-buffered saline (DPBS) and incubated at rt for 45 min. […] BRET signal was determined by quantifying and calculating the ratio of the light emitted by mVenus (525 nm) over that emitted by RLuc8 (485 nm) using a PHERAstar FSX Microplate Reader (BMG Labtech).

[5] = biological target: T2, D2 DAR; test: DiscoverX D2 DAR β-arrestin recruitment assay; set-up: host or cells: CHO; details: EC80 concentration of DA (1 μM)
Summary of the method: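 CHO cells co-expressing ProLink-tagged D2 DAR and enzyme-acceptor-fused β-arrestin (PathHunter enzyme-fragment complementation). Receptor activation recruits β-arrestin, reconstituting β-galactosidase; detection reagent hydrolysis gives chemiluminescent read-out. Same PathHunter format used for other dopamine receptor subtypes.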

T1 sequence (P35462 whole entry): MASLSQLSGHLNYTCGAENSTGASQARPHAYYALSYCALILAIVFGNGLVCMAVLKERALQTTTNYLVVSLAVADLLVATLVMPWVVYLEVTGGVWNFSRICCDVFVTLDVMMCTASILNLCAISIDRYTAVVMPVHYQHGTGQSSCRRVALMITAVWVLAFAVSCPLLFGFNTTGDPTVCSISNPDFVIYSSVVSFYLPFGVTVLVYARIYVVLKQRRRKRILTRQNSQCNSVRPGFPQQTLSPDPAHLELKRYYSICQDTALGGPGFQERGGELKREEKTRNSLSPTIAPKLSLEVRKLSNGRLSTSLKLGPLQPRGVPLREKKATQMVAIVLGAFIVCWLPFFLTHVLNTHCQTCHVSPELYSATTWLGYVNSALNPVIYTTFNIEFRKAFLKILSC
T2 sequence (P14416 whole entry): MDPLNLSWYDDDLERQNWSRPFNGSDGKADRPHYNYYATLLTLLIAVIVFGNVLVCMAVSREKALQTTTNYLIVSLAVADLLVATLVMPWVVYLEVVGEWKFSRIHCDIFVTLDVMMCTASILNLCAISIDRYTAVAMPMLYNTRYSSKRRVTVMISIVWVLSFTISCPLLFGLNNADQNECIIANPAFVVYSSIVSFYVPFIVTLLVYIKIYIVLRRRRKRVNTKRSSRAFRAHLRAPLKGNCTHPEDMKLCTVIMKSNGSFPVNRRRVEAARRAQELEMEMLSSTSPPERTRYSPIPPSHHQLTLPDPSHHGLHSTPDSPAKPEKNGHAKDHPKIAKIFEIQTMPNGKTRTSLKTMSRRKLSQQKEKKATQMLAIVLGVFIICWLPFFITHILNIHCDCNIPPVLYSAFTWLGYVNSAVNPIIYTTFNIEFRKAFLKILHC

Emax ([2]; 5 min, read-out: D3 Go BRET Imax): > 100% | IC50 [2]: 10 to 50 µM | IC50 ([3]; agonist dopamine, read-out: Functional IC50 for decreasing the Emax of dopamine): 17 µM | IC50 ([3]; agonist pramipexole, read-out: Functional IC50 for decreasing the Emax of pramipexole): 14 µM | mode of antagonism in curve-shift assays ([3]; versus agonist (dopamine, pramipexole)): behaves in a non-competitive manner | antagonist activity at the D2 DAR, BRET β-arrestin [4]: lacked antagonist activity | D2 DAR Imax [5]: NA (“NA” indicates not active)
SMILES: Cc1ccc(NS(=O)(=O)c2c(C)[nH]c(C)c2C(=O)N2CCCC2)cc1Cl [Cmp. 1]
activity at other dopamine receptor subtypes [1]: no activity
